Assay results published in patent US9597407B2, “Targeted antimicrobial moieties” (C3 Jian, Inc., priority 2009, dated 2017).
Entries after “also recorded” stand apart in the source; their conditions may differ.

What was measured:
bacteria = test: Binding of targeting peptides to microorganisms (Table 3); settings: preferably 1x PBS; for Target(s) (microorganism bound by the targeting peptide) / Target(s) (microorganisms bound by the targeting peptide): peptide binding in aqueous buffers that varied depending on peptide solubility
microorganisms = test: Morphology, biofilm and growth disruption by peptides (Table 5); assay type: cell-based; parameters: key: A: Peptide aggregates; B: Less hyphal formation; Clumps; Diffuse clumps and small polyps; F: Diffuse growth; H: Thin; I: Growth inhibition; Microcolony formation; Rippled; Small polyps; Thick; W: Halo formation on top, microlonies on bottom
Excerpt: In certain embodiments peptides that induce alterations in phenotype or other biological activities can also be used as antimicrobial effector moieties.

[1] = microorganism bound by the targeting peptide, binding in aqueous buffers chosen by peptide solubility

## KKFKIFVIINWFYHKYIILNFEENF [PF-C085]
bacteria
  Target(s) (microorganism bound by the targeting peptide): A. naeslundii; also recorded: F. nucleatum; also recorded: P. gingivalis; also recorded: S. mutans; also recorded: T. denticola
microorganisms; S. mutans
  Organism, effect (morphology, biofilm and growth disruption): S. mutans (F)

## MKRRRCNWCGKLFYLEEKSKEAYCCKECRKKAKKVKK [PF-307]
bacteria; [1]
  Target(s): S. epidermidis; also recorded: B. subtilis; also recorded: B. fragilis; also recorded: C. difficile
microorganisms; B. subtilis
  Organism, effect: B. subtilis (H)
microorganisms; C. albicans
  Organism, effect: C. albicans (B)
microorganisms; S. epidermidis
  Organism, effect: S. epidermidis (T)

## PF-099 (EIIAYLEGRFANA; Peptide with targeting and/or antimicrobial activity)
bacteria; [1]
  Target(s): S. epidermidis; also recorded: M. luteus; also recorded: E. coli; also recorded: C. jeikeium
microorganisms; C. jeikeium
  Organism, effect: C. jeikeium (C)
microorganisms; S. epidermidis
  Organism, effect: S. epidermidis (D)

## PF-395 (YCVPLGNMGNMNNKIW; Peptide with targeting and/or antimicrobial activity)
bacteria
  Target(s) (microorganisms bound by the targeting peptide): S. epidermidis; also recorded: E. coli; also recorded: P. aeruginosa; also recorded: S. pneumoniae; also recorded: E. faecalis; also recorded: C. jeikeium; also recorded: C. jejuni
microorganisms; E. coli
  Organism, effect: E. coli (R)
microorganisms; MRSA
  Organism, effect: MRSA (C)
microorganisms; S. epidermidis
  Organism, effect: S. epidermidis (C)

## PF-693 (chain 1 PDPAR; chain 2 PDPAR; Peptide with targeting and/or antimicrobial activity)
bacteria
  Target(s) (microorganism bound by the targeting peptide): Mycobacteria spp
microorganisms; S. pneumoniae
  Organism, effect (morphology, biofilm and growth disruption): S. pneumoniae (A)

## PF-607 (YIESDPRKFDYIFGAIRDH; Peptide with targeting and/or antimicrobial activity)
bacteria
  Target(s) (microorganism bound by the targeting peptide): S. epidermidis and P. mirabilis and E. coli and MRSA and S. pneumoniae and C. jeikeium
microorganisms; C. jejuni
  Organism, effect (morphology, biofilm and growth disruption): C. jejuni (R)
microorganisms; E. faecalis
  Organism, effect (morphology, biofilm and growth disruption): E. faecalis (A)
microorganisms; MRSA
  Organism, effect (morphology, biofilm and growth disruption): MRSA (S)
microorganisms; S. epidermidis
  Organism, effect (morphology, biofilm and growth disruption): S. epidermidis (M)
microorganisms; S. pneumoniae
  Organism, effect (morphology, biofilm and growth disruption): S. pneumoniae (R)

## PF-662 (chain 1 GKQSRAHGPVASRREFRRKSG; chain 2 GKQSRAHGPVASRREFRRKSG; Peptide with targeting and/or antimicrobial activity)
bacteria
  Target(s) (microorganism bound by the targeting peptide): Mycobacteria spp
microorganisms; S. pneumoniae
  Organism, effect (morphology, biofilm and growth disruption): S. pneumoniae (A)

## PF-695 (chain 1 ALSVMLGNIPLVVPNANQL; chain 2 ALSVMLGNIPLVVPNANQL; Peptide with targeting and/or antimicrobial activity)
bacteria
  Target(s) (microorganism bound by the targeting peptide): Mycobacteria spp
microorganisms; E. faecalis
  Organism, effect (morphology, biofilm and growth disruption): E. faecalis (R)
microorganisms; MRSA
  Organism, effect (morphology, biofilm and growth disruption): MRSA (R)
microorganisms; S. pneumoniae
  Organism, effect (morphology, biofilm and growth disruption): S. pneumoniae (C)

## PF-C091 (ASNTPRFVRLTLFNFYSKIWNVTHLFLFNNL; Peptide with targeting and/or antimicrobial activity)
bacteria
  Target(s) (microorganism bound by the targeting peptide): A. naeslundii; also recorded: F. nucleatum; also recorded: P. gingivalis; also recorded: S. mutans; also recorded: T. denticola
microorganisms; F. nucleatum
  Organism, effect (morphology, biofilm and growth disruption): F. nucleatum (T)

## PF-192 (VEEDEAPPPHY; Peptide with targeting and/or antimicrobial activity)
bacteria; [1]
  Target(s): S. epidermidis; also recorded: M. luteus; also recorded: P. aeruginosa; also recorded: C. albicans; also recorded: E. faecalis; also recorded: C. jeikeium
microorganisms; S. epidermidis
  Organism, effect: S. epidermidis (D)

## PF-644 (chain 1 TSGLIIGENGLNGL; chain 2 TSGLIIGENGLNGL; Peptide with targeting and/or antimicrobial activity)
bacteria
  Target(s) (microorganism bound by the targeting peptide): Mycobacteria spp
microorganisms; S. pneumoniae
  Organism, effect (morphology, biofilm and growth disruption): S. pneumoniae (H)

## PF-C131 (QWIVAKREIRMHIYCHISVIHVIIFFG; Peptide with targeting and/or antimicrobial activity)
bacteria
  Target(s) (microorganism bound by the targeting peptide): A. naeslundii; also recorded: F. nucleatum; also recorded: P. gingivalis; also recorded: S. mutans
microorganisms; F. nucleatum
  Organism, effect (morphology, biofilm and growth disruption): F. nucleatum (T)
microorganisms; S. mutans
  Organism, effect (morphology, biofilm and growth disruption): S. mutans (F)

## PF-270 (MYLTPYAWIAVGSIFAFSVTTIKIGDQNDEKQKSHKNDVHKR; Peptide with targeting and/or antimicrobial activity)
bacteria; [1]
  Target(s): S. epidermidis; also recorded: M. luteus; also recorded: P. aeruginosa
microorganisms; M. luteus
  Organism, effect: M. luteus (H)

## PF-683 (chain 1 LWPVA; chain 2 LWPVA; Peptide with targeting and/or antimicrobial activity)
bacteria
  Target(s) (microorganism bound by the targeting peptide): Mycobacteria spp
microorganisms; MRSA
  Organism, effect (morphology, biofilm and growth disruption): MRSA (R)
microorganisms; S. epidermidis
  Organism, effect (morphology, biofilm and growth disruption): S. epidermidis (R)
microorganisms; S. pneumoniae
  Organism, effect (morphology, biofilm and growth disruption): S. pneumoniae (H)

## PF-003 (chain 1 MNNWIKVAQISVTVINEVIDIMKEKQNGGK; chain 2 MNNWIKVAQISVTVINEVIDIMKEKQNGGK; Peptide with targeting and/or antimicrobial activity)
bacteria; microorganism the targeting peptide binds, binding in aqueous buffers that varied with peptide solubility
  Target(s): S. epidermidis and M. luteus and P. mirabilis and C. albicans and MRSA and C. jeikeium
microorganisms; C. jeikeium
  Organism, effect: C. jeikeium (A)
microorganisms; M. luteus
  Organism, effect: M. luteus (A)
microorganisms; MRSA
  Organism, effect: MRSA (R)
microorganisms; S. epidermidis
  Organism, effect: S. epidermidis (D)

## PF-704 (chain 1 APAARAAL; chain 2 APAARAAL; Peptide with targeting and/or antimicrobial activity)
bacteria
  Target(s) (microorganism bound by the targeting peptide): Mycobacteria spp
microorganisms; S. pneumoniae
  Organism, effect (morphology, biofilm and growth disruption): S. pneumoniae (C)

## PF-643 (chain 1 VRCRL; chain 2 VRCRL; Peptide with targeting and/or antimicrobial activity)
bacteria
  Target(s) (microorganism bound by the targeting peptide): Mycobacteria spp
microorganisms; E. faecalis
  Organism, effect (morphology, biofilm and growth disruption): E. faecalis (R)
microorganisms; MRSA
  Organism, effect (morphology, biofilm and growth disruption): MRSA (C)
microorganisms; S. pneumoniae
  Organism, effect (morphology, biofilm and growth disruption): S. pneumoniae (R)

## PF-646 (chain 1 APASPGRRPG; chain 2 APASPGRRPG; Peptide with targeting and/or antimicrobial activity)
bacteria
  Target(s) (microorganism bound by the targeting peptide): Mycobacteria spp
microorganisms; C. albicans
  Organism, effect (morphology, biofilm and growth disruption): C. albicans (B)
microorganisms; S. pneumoniae
  Organism, effect (morphology, biofilm and growth disruption): S. pneumoniae (H)

## PF-123 (TTRPQVAEDRQLDDALKETFPASDPISP; Peptide with targeting and/or antimicrobial activity)
bacteria; [1]
  Target(s): M. luteus; also recorded: E. coli
microorganisms; S. epidermidis
  Organism, effect: S. epidermidis (M)

## PF-685 (chain 1 PTLWLACL; chain 2 PTLWLACL; Peptide with targeting and/or antimicrobial activity)
bacteria
  Target(s) (microorganism bound by the targeting peptide): Mycobacteria spp
microorganisms; C. jeikeium
  Organism, effect (morphology, biofilm and growth disruption): C. jeikeium (R)
microorganisms; E. faecalis
  Organism, effect (morphology, biofilm and growth disruption): E. faecalis (R)
microorganisms; MRSA
  Organism, effect (morphology, biofilm and growth disruption): MRSA (M)
microorganisms; S. epidermidis
  Organism, effect (morphology, biofilm and growth disruption): S. epidermidis (M)
microorganisms; S. pneumoniae
  Organism, effect (morphology, biofilm and growth disruption): S. pneumoniae (M)

## PF-255 (DHKINESQHNPFRSDSNKQNVDFF; Peptide with targeting and/or antimicrobial activity)
bacteria; [1]
  Target(s): P. aeruginosa
microorganisms; M. luteus
  Organism, effect: M. luteus (M)

## PF-664 (chain 1 DQLCVEYPARVSTG; chain 2 DQLCVEYPARVSTG; Peptide with targeting and/or antimicrobial activity)
bacteria
  Target(s) (microorganism bound by the targeting peptide): M. smegmatis
microorganisms; E. faecalis
  Organism, effect (morphology, biofilm and growth disruption): E. faecalis (R)
microorganisms; MRSA
  Organism, effect (morphology, biofilm and growth disruption): MRSA (R)
microorganisms; S. epidermidis
  Organism, effect (morphology, biofilm and growth disruption): S. epidermidis (M)
microorganisms; S. pneumoniae
  Organism, effect (morphology, biofilm and growth disruption): S. pneumoniae (M)

## PF-659 (chain 1 TVIST; chain 2 TVIST; Peptide with targeting and/or antimicrobial activity)
bacteria
  Target(s) (microorganism bound by the targeting peptide): Mycobacteria spp
microorganisms; B. subtilis
  Organism, effect (morphology, biofilm and growth disruption): B. subtilis (H)
microorganisms; MRSA
  Organism, effect (morphology, biofilm and growth disruption): MRSA (R)
microorganisms; S. epidermidis
  Organism, effect (morphology, biofilm and growth disruption): S. epidermidis (M)
microorganisms; S. pneumoniae
  Organism, effect (morphology, biofilm and growth disruption): S. pneumoniae (C)

## PF-C142 (DFPPLSFFRRRFHAYTAPIDNFFGANPF; Peptide with targeting and/or antimicrobial activity)
bacteria
  Target(s) (microorganism bound by the targeting peptide): A. naeslundii; also recorded: F. nucleatum; also recorded: P. gingivalis; also recorded: S. mutans; also recorded: T. denticola
microorganisms; S. mutans
  Organism, effect (morphology, biofilm and growth disruption): S. mutans (I)

## PF-224 (DYFYITLSQKNTF; Peptide with targeting and/or antimicrobial activity)
bacteria; [1]
  Target(s): S. epidermidis; also recorded: P. aeruginosa; also recorded: A. baumannii
microorganisms; M. luteus
  Organism, effect: M. luteus (T)

## PF-401 (YWLSRVTTGHSFAFEKPVPLSLTIK; Peptide with targeting and/or antimicrobial activity)
bacteria
  Target(s) (microorganisms bound by the targeting peptide): S. epidermidis and E. coli and P. aeruginosa and MRSA and E. faecalis and C. jejuni
microorganisms; E. coli
  Organism, effect: E. coli (R)
microorganisms; E. faecalis
  Organism, effect: E. faecalis (C)
microorganisms; MRSA
  Organism, effect: MRSA (C)
microorganisms; S. epidermidis
  Organism, effect: S. epidermidis (C)

## PF-655 (chain 1 DAPCFDDQFGDLKCQMC; chain 2 DAPCFDDQFGDLKCQMC; Peptide with targeting and/or antimicrobial activity)
bacteria
  Target(s) (microorganism bound by the targeting peptide): M. smegmatis
microorganisms; B. subtilis
  Organism, effect (morphology, biofilm and growth disruption): B. subtilis (H)
microorganisms; MRSA
  Organism, effect (morphology, biofilm and growth disruption): MRSA (M)
microorganisms; S. epidermidis
  Organism, effect (morphology, biofilm and growth disruption): S. epidermidis (R)
microorganisms; S. pneumoniae
  Organism, effect (morphology, biofilm and growth disruption): S. pneumoniae (H)
